Laboratory results from ChEMBL document CHEMBL4699608, “Aliphatic amines are viable pro-drug moieties in phosphonoamidate drugs” (Bioorg Med Chem Lett, 2020).
The source made the active and inactive calls. The rule behind the calls is not given here.

Key:
[1] = system: D-423MG; assay: Cytotoxicity against human D423 cells with ENO1 deficient assessed as reduction in cell viability incubated for 5 days by crystal violet staining based spectrophotometry; assay type: functional; conditions: 120 h
[2] = system: D-423MG; assay: Cytotoxicity against human D423 cells with HINT1 deficient; assay type: functional, cell-based
[3] = system: D-423MG; assay: Cytotoxicity against human D423 cells with PAPSS1 deficient; assay type: functional, cell-based
[4] = system: D-423MG; assay: Cytotoxicity against human D423 cells with CES2 deficient; assay type: functional, cell-based

Compound	IC50 [1]	further results
CC(C)(C)C(=O)OCOP(N)(=O)C1CCCN(O)C1=O (configuration not stated)	62.6 nM	
CNP(=O)(OCOC(=O)C(C)(C)C)C1CCCN(O)C1=O (configuration not stated)	115 nM	
CC(C)(C)C(=O)OCOP(=O)(NCC1CC1)C1CCCN(O)C1=O (configuration not stated)		Activity [2]: Active; Activity [3]: Active; Activity [4]: Active
CC(C)(C)C(=O)OCOP(=O)(NCc1ccccc1F)C1CCCN(O)C1=O (configuration not stated)	196 nM	
CC(C)(C)C(=O)OCOP(=O)(NC1CCC1)C1CCCN(O)C1=O (configuration not stated)	121 nM	
CC(C)(C)C(=O)OCOP(=O)(NCc1ccc(F)c(F)c1)C1CCCN(O)C1=O (configuration not stated)	84.6 nM	
CC(C)(C)C(=O)OCOP(=O)(OCOC(=O)C(C)(C)C)C1CCCN(O)C1=O (configuration not stated)	17.3 nM	
CC(C)OC(=O)C(C)NP(=O)(OCOC(=O)C(C)(C)C)C1CCCN(O)C1=O (configuration not stated)	258 nM	
CCCCCCCCCCCCNP(=O)(O)C1CCCN(O)C1=O (configuration not stated)	24 nM	
CC(C)(C)C(=O)OCOP(=O)(NCc1ccc(F)cc1F)C1CCCN(O)C1=O (configuration not stated)	80.3 nM	
CC(C)(C)C(=O)OCOP(=O)(NCC1CCCCC1)C1CCCN(O)C1=O (configuration not stated)	81.1 nM	
CC(C)(C)C(=O)OCOP(=O)(NCc1ccc(F)cc1)C1CCCN(O)C1=O (configuration not stated)	129 nM	
O=C1C(P(=O)(O)NCC2CC2)CCCN1O (configuration not stated)	8830 nM	
CC(C)(C)C(=O)OCOP(=O)(NCc1cccc(F)c1)C1CCCN(O)C1=O (configuration not stated)	103 nM	
CC(C)(C)C(=O)OCOP(=O)(NCc1ccccc1)C1CCCN(O)C1=O (configuration not stated)	244 nM	
